In paper PMC12291913 (Antibiotics, 2025):
≈ marks a conversion by molar mass, not a printed value. Where “and” joins values, the source holds several entries; their conditions need not be identical. Equal entries are not always repeated. Where two headings read alike, the source gives them in different places.

What was measured:
[1] = system: M. avium clinical isolate Koav 2 (WT); test: microbe, parasite or virus in culture; format: cell-based; settings: Mycobacterium avium, drug alone, day 14
[2] = system: M. avium clinical isolate Koav 2 (WT); test: microbe, parasite or virus in culture; format: cell-based; settings: Mycobacterium avium, checkerboard
[3] = system: M. avium clinical isolate Koav 1 (WT); test: microbe, parasite or virus in culture; format: cell-based; settings: checkerboard; for MIC: Mycobacterium avium
[4] = system: M. avium clinical isolate Koav 19 (WT); test: microbe, parasite or virus in culture; format: cell-based; settings: for MIC: Mycobacterium avium
[5] = system: M. avium clinical isolate Koav 3 (GyrA Asp95Gly); format: cell-based, M. avium subsp. hominissuis
[6] = system: M. avium clinical isolate Cl-A-2 (GyrA Asp95Tyr); format: cell-based, M. avium subsp. hominissuis
[7] = system: M. avium clinical isolate Koav 15 (WT); test: microbe, parasite or virus in culture; format: cell-based; settings: Mycobacterium avium, drug alone, day 14, read-out: MIC
[8] = system: M. avium clinical isolate Koav 21 (WT); test: microbe, parasite or virus in culture; format: cell-based; settings: Mycobacterium avium, checkerboard
[9] = system: M. avium clinical isolate Koav 13 (GyrA Asp95Gly); format: cell-based, M. avium subsp. hominissuis
[10] = system: M. avium clinical isolate Koav 25 (WT); test: microbe, parasite or virus in culture; format: cell-based; settings: Mycobacterium avium, drug alone, day 14, read-out: MIC
[11] = system: M. avium clinical isolate Koav 20 (WT); test: microbe, parasite or virus in culture; format: cell-based; settings: Mycobacterium avium, drug alone, day 14, read-out: MIC
[12] = system: M. avium clinical isolate Koav 15 (WT); test: microbe, parasite or virus in culture; format: cell-based; settings: checkerboard; for MIC: Mycobacterium avium
[13] = system: M. avium clinical isolate Koav 1 (WT); test: microbe, parasite or virus in culture; format: cell-based; settings: Mycobacterium avium, drug alone, day 14, read-out: MIC
[14] = system: M. avium clinical isolate Koav 20 (WT); test: microbe, parasite or virus in culture; format: cell-based; settings: checkerboard
[15] = system: M. avium clinical isolate Koav 11 (GyrA Asp95Tyr); format: cell-based, M. avium subsp. hominissuis
[16] = system: M. avium clinical isolate Koav 21 (WT); test: microbe, parasite or virus in culture; format: cell-based; settings: Mycobacterium avium, drug alone, day 14, read-out: MIC
[17] = system: M. avium clinical isolate Koav 13 (GyrA Asp95Gly); format: cell-based, M. avium subsp. hominissuis; remark: listed apart in the source
[18] = system: M. avium clinical isolate Koav 19 (WT); test: microbe, parasite or virus in culture; format: cell-based; settings: Mycobacterium avium, drug alone, day 14, read-out: MIC
[19] = system: M. avium clinical isolate Koav 11 (GyrA Asp95Tyr); format: cell-based, M. avium subsp. hominissuis; remark: listed apart in the source
[20] = system: M. avium clinical isolate Koav 3 (GyrA Asp95Gly); format: cell-based, M. avium subsp. hominissuis; remark: listed apart in the source
[21] = system: M. avium clinical isolate Cl-A-2 (GyrA Asp95Tyr); format: cell-based, M. avium subsp. hominissuis; remark: listed apart in the source
[22] = system: M. avium clinical isolate Koav 25 (WT); test: microbe, parasite or virus in culture; format: cell-based; settings: for MIC: Mycobacterium avium
[23] = system: M. avium clinical isolate Koav 11 (GyrA Asp95Tyr); settings: drug alone, previous study ref 17; cited from earlier work
[24] = system: M. avium clinical isolate Koav 1 (WT); settings: drug alone, previous study ref 17; cited from earlier work
[25] = system: M. avium clinical isolate Koav 19 (WT); settings: drug alone, previous study ref 17; cited from earlier work
[26] = system: M. avium clinical isolate Koav 20 (WT); settings: drug alone, previous study ref 17; cited from earlier work
[27] = system: M. avium clinical isolate Koav 15 (WT); settings: drug alone, previous study ref 17; cited from earlier work
[28] = system: M. avium clinical isolate Koav 3 (GyrA Asp95Gly); settings: drug alone, previous study ref 17; cited from earlier work
[29] = system: M. avium clinical isolate Koav 2 (WT); settings: drug alone, previous study ref 17; cited from earlier work
[30] = system: M. avium clinical isolate Cl-A-2 (GyrA Asp95Tyr); settings: drug alone, previous study ref 17; cited from earlier work
[31] = system: M. avium clinical isolate Koav 13 (GyrA Asp95Gly); settings: drug alone, previous study ref 17; cited from earlier work
[32] = system: M. avium clinical isolate Koav 21 (WT); settings: drug alone, previous study ref 17; cited from earlier work
[33] = system: M. avium clinical isolate Koav 25 (WT); settings: drug alone, previous study ref 17; cited from earlier work
[34] = Koav 25 (K 25), WT, checkerboard

Q: For `NNC(=O)c1ccncc1` [INH, isoniazid], which MIC [1] is on record?
A: 128 µg/mL (≈ 933 µM)

Q: And the MIC ([2]; Koav 2 (K 2), WT, single replicates, read-out: MIC of drug alone)?
A: 128 µg/mL

Q: What about the MIC ([2]; read-out: MIC of INH or EMB with 1 µg/ml MXF, Koav 2 (K 2), WT) of the same compound?
A: 8 µg/mL

Q: And the MIC ([2]; read-out: MIC of INH or EMB with WQ-3810, Koav 2 (K 2), WT)?
A: 16 µg/mL

Q: And the “MIC of INH or EMB with 1 µg/ml MXF” value ([3]; Koav 1 (K 1), WT)?
A: 2 µg/mL

Q: And the “MIC of INH or EMB with WQ-3810” value ([3]; Koav 1 (K 1), WT)?
A: 8 µg/mL

Q: What about the “MIC of drug alone” value ([3]; Koav 1 (K 1), WT, single replicates) of the same compound?
A: 16 µg/mL and 32 µg/mL and 8 µg/mL

Q: What about the MIC ([3]; read-out: MIC of INH or EMB with 1 µg/ml MXF, Koav 1 (K 1), WT) of the same compound?
A: 1 µg/mL

Q: What about the MIC ([3]; read-out: MIC of INH or EMB with WQ-3810, Koav 1 (K 1), WT) of the same compound?
A: 4 µg/mL

Q: What about the “MIC of drug alone” value ([4]; Koav 19 (K 19), WT, checkerboard, single replicates) of the same compound?
A: 16 µg/mL

Q: What about the “FIC of INH or EMB” value ([4]; Koav 19 (K 19), WT, pair with MXF) of the same compound?
A: 0.0625 µg/mL

Q: And the MIC ([4]; Koav 19 (K 19), WT, checkerboard, single replicates, read-out: MIC of drug alone)?
A: 8 µg/mL

Q: What about the MIC ([4]; read-out: MIC of INH or EMB with 1 µg/ml MXF, Koav 19 (K 19), WT, checkerboard) of the same compound?
A: 1 µg/mL

Q: And the “MIC of INH or EMB with 1 µg/ml MXF” value [5]?
A: 2 µg/mL and 1 µg/mL

Q: And the “MIC of INH or EMB with WQ-3810” value [5]?
A: 2 µg/mL and 1 µg/mL

Q: And the “MIC of drug alone” value [5]?
A: 4 µg/mL and 8 µg/mL

Q: And the MIC [6]?
A: 4 to 8 µg/mL

Q: And the MIC [7]?
A: 32 µg/mL (≈ 233 µM)

Q: And the MIC ([8]; Koav 21 (K 21), WT, single replicates, read-out: MIC of drug alone)?
A: 16 µg/mL

Q: What about the MIC ([8]; read-out: MIC of INH or EMB with 1 µg/ml MXF, Koav 21 (K 21), WT) of the same compound?
A: 1 µg/mL

Q: What about the “MIC of INH or EMB with 1 µg/ml MXF” value [9] of the same compound?
A: 8 µg/mL and 4 µg/mL

Q: And the “MIC of INH or EMB with WQ-3810” value [9]?
A: 8 µg/mL and 4 µg/mL

Q: What about the “MIC of drug alone” value [9] of the same compound?
A: 32 µg/mL

Q: And the MIC [10]?
A: 8 µg/mL (≈ 58.3 µM)

Q: And the MIC [11]?
A: 16 µg/mL (≈ 117 µM)

Q: And the “MIC of INH or EMB with 1 µg/ml MXF” value ([12]; Koav 15 (K 15), WT)?
A: 4 µg/mL

Q: And the “MIC of INH or EMB with WQ-3810” value ([12]; Koav 15 (K 15), WT)?
A: 8 µg/mL

Q: And the “MIC of drug alone” value ([12]; Koav 15 (K 15), WT, single replicates)?
A: 16 µg/mL

Q: What about the MIC ([12]; Koav 15 (K 15), WT, single replicates, read-out: MIC of drug alone) of the same compound?
A: 32 µg/mL

Q: And the MIC ([12]; read-out: MIC of INH or EMB with 1 µg/ml MXF, Koav 15 (K 15), WT)?
A: 8 µg/mL

Q: And the MIC ([12]; read-out: MIC of INH or EMB with WQ-3810, Koav 15 (K 15), WT)?
A: 4 µg/mL

Q: What about the MIC [13] of the same compound?
A: 8 µg/mL (≈ 58.3 µM)

Q: And the “MIC of INH or EMB with 1 µg/ml MXF” value ([14]; Koav 20 (K 20), WT)?
A: 4 µg/mL

Q: And the “MIC of drug alone” value ([14]; Koav 20 (K 20), WT, single replicates)?
A: 32 µg/mL and 16 µg/mL and 64 µg/mL

Q: And the MIC ([14]; Mycobacterium avium, read-out: MIC of INH or EMB with 1 µg/ml MXF, Koav 20 (K 20), WT)?
A: 2 µg/mL

Q: What about the “MIC of INH or EMB with 1 µg/ml MXF” value [15] of the same compound?
A: 2 µg/mL

Q: What about the “MIC of INH or EMB with WQ-3810” value [15] of the same compound?
A: 2 µg/mL

Q: What about the “MIC of drug alone” value [15] of the same compound?
A: 8 µg/mL and 16 µg/mL

Q: And the MIC [16]?
A: 16 µg/mL (≈ 117 µM)

Q: And the MIC [17]?
A: 32 µg/mL (≈ 233 µM)

Q: What about the MIC [18] of the same compound?
A: 8 to 16 µg/mL (≈ 58.3 to 117 µM)

Q: What about the MIC [19] of the same compound?
A: 8 µg/mL (≈ 58.3 µM)

Q: What about the MIC [20] of the same compound?
A: 4 µg/mL (≈ 29.2 µM)

Q: What about the “FIC of INH or EMB” value [21] of the same compound?
A: 0.5 µg/mL and 0.25 µg/mL

Q: What about the “MIC of INH or EMB with 1 µg/ml MXF” value [21] of the same compound?
A: 2 µg/mL

Q: And the “MIC of INH or EMB with WQ-3810” value [21]?
A: 2 µg/mL

Q: What about the “MIC of drug alone” value [21] of the same compound?
A: 4 µg/mL and 8 µg/mL

Q: What about the “MIC of INH or EMB with 1 µg/ml MXF” value [22, 34] of the same compound?
A: 1 µg/mL

Q: What about the “MIC of INH or EMB with WQ-3810” value [22, 34] of the same compound?
A: 4 µg/mL

Q: And the “MIC of drug alone” value ([22]; Koav 25 (K 25), WT, checkerboard, single replicates)?
A: 16 µg/mL

Q: What about the “FIC of INH or EMB” value ([22]; Koav 25 (K 25), WT, pair with WQ-3810) of the same compound?
A: 0.25 µg/mL

Q: And the MIC ([22]; Koav 25 (K 25), WT, checkerboard, single replicates, read-out: MIC of drug alone)?
A: 8 µg/mL

Q: What about the MIC ([22]; read-out: MIC of INH or EMB with 1 µg/ml MXF, Koav 25 (K 25), WT, checkerboard) of the same compound?
A: 2 µg/mL

Q: What about the MIC ([22]; read-out: MIC of INH or EMB with WQ-3810, Koav 25 (K 25), WT, checkerboard) of the same compound?
A: 2 µg/mL

Q: For `C[C@H]1COc2c(N3CCN(C)CC3)c(F)cc3c(=O)c(C(=O)O)cn1c23` [LVX, levofloxacin], which MIC [23] is on record?
A: 8 µg/mL (≈ 22.1 µM)

Q: And the MIC [24]?
A: <0.5 µg/mL

Q: What about the MIC [25] of the same compound?
A: 2 µg/mL (≈ 5.53 µM)

Q: What about the MIC [26] of the same compound?
A: <0.5 µg/mL

Q: What about the MIC [27] of the same compound?
A: 4 µg/mL (≈ 11.1 µM)

Q: And the MIC [28]?
A: 64 µg/mL (≈ 177 µM)

Q: What about the MIC [29] of the same compound?
A: 2 µg/mL (≈ 5.53 µM)

Q: What about the MIC [30] of the same compound?
A: 64 µg/mL (≈ 177 µM)

Q: And the MIC [31]?
A: 128 µg/mL (≈ 354 µM)

Q: What about the MIC [32] of the same compound?
A: 4 µg/mL (≈ 11.1 µM)

Q: And the MIC [33]?
A: 4 µg/mL (≈ 11.1 µM)
